ChEMBL document CHEMBL3045530, “Synthesis, antimycobacterial, antiviral, antimicrobial activities, and QSAR studies of isonicotinic acid-1-(substituted phenyl)-ethylidene/cycloheptylidene hydrazides” (Med Chem Res, 2012)
Values after ≈ are worked out from the molar mass of the structure shown.

Assays:
HEL = test: Cytostatic against Homo sapiens (human) HEL cells assessed as alteration in cell morphology by microscopy; assay type: ADME, cell-based
[1] = Cytotoxicity against Chlorocebus aethiops (African green monkey) Vero cells assessed as alteration in cell morphology by microscopy; assay type: cell-based; conditions: chlorocebus sabaeus, read-out: MTC
Punta Toro virus = test: Antiviral activity against Punta Toro virus infected Vero cells assessed as inhibition of virus-induced cytopathicity; assay type: functional, organism-based
Coxsackievirus B4 [2] = test: Antiviral activity against Human coxsackievirus B4 infected Vero cells assessed as inhibition of virus-induced cytopathicity; assay type: functional, organism-based; conditions: Enterovirus B
Sindbis virus = test: Antiviral activity against Sindbis virus infected Vero cells assessed as inhibition of virus-induced cytopathicity; assay type: functional, organism-based
[3] = tested on: Mammalian orthoreovirus 1; test: Antiviral activity against Mammalian orthoreovirus 1 infected Vero cells assessed as inhibition of virus-induced cytopathicity by microscopy; assay type: functional, organism-based; conditions: Mammalian orthoreovirus 1, Vero
Human respirovirus 3 = test: Antiviral activity against Human parainfluenza virus 3 infected Vero cells assessed as inhibition of virus-induced cytopathicity by microscopy; assay type: functional, organism-based; conditions: Human respirovirus 3, Vero
[4] = Cytotoxicity against Homo sapiens (human) HeLa cells assessed as alteration in cell morphology by microscopy; assay type: cell-based; conditions: read-out: MTC
[5] = tested on: Respiratory syncytial virus; test: Antiviral activity against Respiratory syncytial virus infected human HeLa cells assessed as inhibition of virus-induced cytopathicity by microscopy; assay type: functional, organism-based
Coxsackievirus B4 [6] = test: Antiviral activity against Human coxsackievirus B4 infected human HeLa cells assessed as inhibition of virus-induced cytopathicity by microscopy; assay type: functional, organism-based; conditions: Enterovirus B
[7] = tested on: Vesicular stomatitis virus; test: Antiviral activity against Vesicular stomatitis virus infected human HeLa cells assessed as inhibition of virus-induced cytopathicity by microscopy; assay type: functional, organism-based
[8] = Cytotoxicity against Homo sapiens (human) HEL cells assessed as alteration in cell morphology by microscopy; assay type: cell-based; conditions: for MCC: read-out: MTC
[9] = tested on: Human herpesvirus 3 strain Oka vaccine; test: Antiviral activity against Human herpesvirus 3 strain Oka vaccine OKA 07-1 (Varicella zoster virus ) infected in human HEL cells assessed as inhibition of virus-induced cytopathicity; assay type: functional, organism-based; conditions: Human alphaherpesvirus 3, HEL
[10] = tested on: Human herpesvirus 5 strain AD169; test: Antiviral activity against Human herpesvirus 5 strain AD169 Davis infected human HEL cells assessed as inhibition of virus-induced cytopathicity by microscopy; assay type: functional, organism-based; conditions: Human betaherpesvirus 5, Davis
Aspergillus niger = test: Antimicrobial activity against Aspergillus niger after 7 days by tube dilution method; assay type: functional
Candida albicans = test: Antimicrobial activity against Candida albicans after 48 hr by tube dilution method; assay type: functional
Escherichia coli = test: Antimicrobial activity against Escherichia coli after 24 hr by tube dilution method; assay type: functional
Staphylococcus aureus = test: Antimicrobial activity against Staphylococcus aureus after 24 hr by tube dilution method; assay type: functional
Bacillus subtilis = test: Antimicrobial activity against Bacillus subtilis after 24 hr by tube dilution method; assay type: functional
Human alphaherpesvirus 1 [11] = test: Antiviral activity against TK(-) aciclovir-resistant Human herpesvirus 1 strain KOS infected in human HEL cells assessed as inhibition of virus-induced cytopathicity; assay type: functional, organism-based; conditions: Human alphaherpesvirus 1, KOS
Human alphaherpesvirus 2 = test: Antiviral activity against Human herpesvirus 2 strain G infected human HEL cells assessed as inhibition of virus-induced cytopathicity by microscopy; assay type: functional, organism-based; conditions: Human alphaherpesvirus 2, strain G
Vaccinia virus = test: Antiviral activity against Vaccinia virus infected human HEL cells assessed as inhibition of virus-induced cytopathicity by microscopy; assay type: functional, organism-based; conditions: Orthopoxvirus vaccinia
Human alphaherpesvirus 1 [12] = test: Antiviral activity against Human herpesvirus 1 strain KOS infected human HEL cells assessed as inhibition of virus-induced cytopathicity by microscopy by microscopy; assay type: functional, organism-based; conditions: Human alphaherpesvirus 1, KOS
[13] = Cytotoxicity against Homo sapiens (human) MT4 cells after 4 days by MTT assay; assay type: cell-based
[14] = tested on: Human immunodeficiency virus 2; test: Antiviral activity against Human immunodeficiency virus type 2 (ISOLATE ROD) infected MT4 cells assessed as inhibition of virus-induced cytopathic effect after 4 days by MTT assay; assay type: functional, organism-based; conditions: Human immunodeficiency virus 2, ISOLATE ROD, MT4, 96 h
[15] = tested on: Human immunodeficiency virus 1; test: Antiviral activity against Human immunodeficiency virus 1 IIIB infected MT4 cells assessed as inhibition of virus-induced cytopathic effect after 4 days by MTT assay; assay type: functional, organism-based; conditions: MT4, 96 h

## C/C(=N\NC(=O)c1ccncc1)c1ccc(O)cc1O
HEL
  Activity: Toxic
[1]
  MCC: 20 µg/mL
Punta Toro virus
  EC50: > 4 µg/mL
Coxsackievirus B4 [2]
  EC50: > 4 µg/mL
Sindbis virus
  EC50: > 4 µg/mL
[3]
  EC50: > 4 µg/mL
Human respirovirus 3
  EC50: > 4 µg/mL
[4]
  MCC: 4 µg/mL
[5]
  EC50: > 0.8 µg/mL
Coxsackievirus B4 [6]
  EC50: > 0.8 µg/mL
[7]
  EC50: > 0.8 µg/mL
[8]
  CC50: 2.1 µg/mL (≈ 7.74 µM)
  MCC: > 100 µg/mL
[9]
  EC50: 8 µg/mL (≈ 29.5 µM)
[10]
  EC50: > 4 µg/mL
Aspergillus niger
  -logMIC: 2.34
Candida albicans
  -logMIC: 2.64
Escherichia coli
  -logMIC: 2.04
Staphylococcus aureus
  -logMIC: 2.04
Bacillus subtilis
  -logMIC: 2.04
Human alphaherpesvirus 1 [11]
  EC50: 2 µg/mL (≈ 7.37 µM)
Human alphaherpesvirus 2
  EC50: 2 µg/mL (≈ 7.37 µM)
Vaccinia virus
  EC50: 2.5 µg/mL (≈ 9.22 µM)
Human alphaherpesvirus 1 [12]
  EC50: 2.5 µg/mL (≈ 9.22 µM)
[13]
  CC50 at 96 h: 9.7 µg/mL (≈ 35.8 µM)
[14]
  EC50: > 9.7 µg/mL
[15]
  EC50: > 9.7 µg/mL

## C/C(=N\NC(=O)c1ccncc1)c1ccccc1O
HEL
  Activity: Toxic
[1]
  MCC: ≥ 4 µg/mL
Punta Toro virus
  EC50: > 4 µg/mL
Coxsackievirus B4 [2]
  EC50: > 4 µg/mL
Sindbis virus
  EC50: > 4 µg/mL
[3]
  EC50: > 4 µg/mL
Human respirovirus 3
  EC50: > 4 µg/mL
[4]
  MCC: 1 µg/mL
[5]
  EC50: > 0.2 µg/mL
Coxsackievirus B4 [6]
  EC50: > 0.2 µg/mL
[7]
  EC50: > 0.2 µg/mL
[8]
  CC50: 0.4 µg/mL (≈ 1.57 µM)
  MCC: 100 µg/mL
[9]
  EC50: 1.8 µg/mL (≈ 7.05 µM)
[10]
  EC50: > 0.8 µg/mL
Aspergillus niger
  -logMIC: 2.31
Candida albicans
  -logMIC: 2.61
Escherichia coli
  -logMIC: 2.31
Staphylococcus aureus
  -logMIC: 2.01
Bacillus subtilis
  -logMIC: 2.01
Human alphaherpesvirus 1 [11]
  EC50: 4 µg/mL (≈ 15.7 µM)
Human alphaherpesvirus 2
  EC50: 1.3 µg/mL (≈ 5.09 µM)
Vaccinia virus
  EC50: 3.5 µg/mL (≈ 13.7 µM)
Human alphaherpesvirus 1 [12]
  EC50: 1.4 µg/mL (≈ 5.48 µM)
[13]
  CC50 at 96 h: 0.5 µg/mL (≈ 1.96 µM)
[14]
  EC50: > 0.5 µg/mL
[15]
  EC50: > 0.5 µg/mL

## CCn1cc(C(=O)O)c(=O)c2cc(F)c(N3CCNCC3)cc21 [NORFLOXACIN]
Escherichia coli
  -logMIC: 2.61
Staphylococcus aureus
  -logMIC: 2.61
Bacillus subtilis
  -logMIC: 2.61

## Cc1ccnc2c1NC(=O)c1cccnc1N2C1CC1 [NEVIRAPINE]
[13]
  CC50 at 96 h: > 4 µg/mL
[14]
  EC50: > 4 µg/mL

## C/C(=N\NC(=O)c1ccncc1)c1ccc(Cl)cc1
HEL
  Activity: Toxic
[1]
  MCC: 100 µg/mL
Punta Toro virus
  EC50: > 20 µg/mL
Coxsackievirus B4 [2]
  EC50: > 20 µg/mL
Sindbis virus
  EC50: > 20 µg/mL
[3]
  EC50: > 20 µg/mL
Human respirovirus 3
  EC50: > 20 µg/mL
[4]
  MCC: 100 µg/mL
[5]
  EC50: > 20 µg/mL
Coxsackievirus B4 [6]
  EC50: > 20 µg/mL
[7]
  EC50: > 20 µg/mL
[8]
  CC50: 20 µg/mL (≈ 73.1 µM)
  MCC: 100 µg/mL
[9]
  EC50: > 20 µg/mL
[10]
  EC50: > 20 µg/mL
Aspergillus niger
  -logMIC: 2.34
Candida albicans
  -logMIC: 2.34
Escherichia coli
  -logMIC: 2.34
Staphylococcus aureus
  -logMIC: 2.34
Bacillus subtilis
  -logMIC: 2.04
Human alphaherpesvirus 1 [11]
  EC50: > 20 µg/mL
Human alphaherpesvirus 2
  EC50: > 20 µg/mL
Vaccinia virus
  EC50: > 20 µg/mL
Human alphaherpesvirus 1 [12]
  EC50: > 20 µg/mL
[13]
  CC50 at 96 h: 88 µg/mL (≈ 321 µM)
[14]
  EC50: > 88 µg/mL
[15]
  EC50: > 88 µg/mL

## COc1ccc(OC)c(/C(C)=N/NC(=O)c2ccncc2)c1
HEL
  Activity: Toxic
[1]
  MCC: > 100 µg/mL
Punta Toro virus
  EC50: > 100 µg/mL
Coxsackievirus B4 [2]
  EC50: > 100 µg/mL
Sindbis virus
  EC50: > 100 µg/mL
[3]
  EC50: > 100 µg/mL
Human respirovirus 3
  EC50: > 100 µg/mL
[4]
  MCC: > 100 µg/mL
[5]
  EC50: > 100 µg/mL
Coxsackievirus B4 [6]
  EC50: > 100 µg/mL
[7]
  EC50: > 100 µg/mL
[8]
  CC50: 100 µg/mL (≈ 334 µM)
  MCC: > 100 µg/mL
[9]
  EC50: > 100 µg/mL
[10]
  EC50: > 100 µg/mL
Aspergillus niger
  -logMIC: 2.38
Candida albicans
  -logMIC: 2.38
Escherichia coli
  -logMIC: 2.68
Staphylococcus aureus
  -logMIC: 2.08
Bacillus subtilis
  -logMIC: 2.08
Human alphaherpesvirus 1 [11]
  EC50: > 100 µg/mL
Human alphaherpesvirus 2
  EC50: > 100 µg/mL
Vaccinia virus
  EC50: > 100 µg/mL
Human alphaherpesvirus 1 [12]
  EC50: > 100 µg/mL
[13]
  CC50 at 96 h: 88 µg/mL (≈ 294 µM)
[14]
  EC50: > 88 µg/mL
[15]
  EC50: > 88 µg/mL

## NNC(=O)c1ccncc1 [ISONIAZID]
Aspergillus niger
  -logMIC: 2.04
Candida albicans
  -logMIC: 2.34
Escherichia coli
  -logMIC: 1.74
Staphylococcus aureus
  -logMIC: 2.04
Bacillus subtilis
  -logMIC: 1.74
